Assay [1] deals with T1, androgen receptor (AR) splicing variant AR-v7 (Homo sapiens, UniProt P10275).
T1 construct: The degradation activity of compounds on AR-v7 in 22RV1 cells; host or cells: 22RV1 cells
T1 sequence (P10275 1-644 isoform P10275-3): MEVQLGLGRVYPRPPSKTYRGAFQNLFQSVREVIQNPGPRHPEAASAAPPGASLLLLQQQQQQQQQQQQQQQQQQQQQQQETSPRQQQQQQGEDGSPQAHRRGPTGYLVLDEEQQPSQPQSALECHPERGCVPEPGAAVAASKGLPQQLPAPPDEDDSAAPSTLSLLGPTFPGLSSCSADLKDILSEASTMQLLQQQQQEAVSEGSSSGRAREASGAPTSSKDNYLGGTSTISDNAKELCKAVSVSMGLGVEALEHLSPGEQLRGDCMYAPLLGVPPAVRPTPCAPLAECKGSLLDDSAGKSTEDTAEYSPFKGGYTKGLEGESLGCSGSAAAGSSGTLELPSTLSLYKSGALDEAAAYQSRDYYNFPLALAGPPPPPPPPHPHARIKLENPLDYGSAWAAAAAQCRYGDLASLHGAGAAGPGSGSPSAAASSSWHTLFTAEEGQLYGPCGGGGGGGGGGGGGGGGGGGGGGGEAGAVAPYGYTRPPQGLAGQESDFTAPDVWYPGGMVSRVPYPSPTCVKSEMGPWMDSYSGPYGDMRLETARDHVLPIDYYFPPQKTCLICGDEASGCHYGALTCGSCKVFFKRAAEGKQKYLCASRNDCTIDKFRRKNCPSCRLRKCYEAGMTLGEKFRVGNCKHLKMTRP
Put plainly: Degradation activity on androgen receptor splicing variant AR-v7 in 22RV1 cells (ELISA). The format is cell-based. As to conditions: AR-v7 degradation in 22RV1 cells, 48 h, class symbols. (In general: An ELISA detects its analyte on a solid surface through an enzyme-linked reagent.)

For another assay, the system named is 22RV1 cells. As to conditions: Homo sapiens, 22Rv1, 144 h.
Where [2] appears, read: read-out: 22RV1 IC50 (nM), 22RV1 cells, 6 days culture, CCK-8, OD 450 nm.

Where two headings read alike, the source gives them in different places.

Broadly, the DC50 is the concentration at which degradation of the target reaches its halfway point. Higher therefore signals a less potent degrader. In general, IC50 refers to the concentration that gives 50% inhibition.

On to `CC(C)(c1ccc(Oc2cc(N3CC4(COC4)C3)ncn2)cc1)c1ccc(O[C@H]2C[C@@H](Nc3ccc4c(c3)C(=O)N(C3CCC(=O)NC3=O)C4=O)C2)cc1` (stereo partly shown) [Example 571], for which the DC50 in assay [1] was less than 10 nM. In the assay on 22RV1 cells (setting [2]), the IC50 came out at 5 nM.
With `CC(C)(c1ccc(Oc2nccc(-n3nccn3)n2)cc1)c1ccc(O[C@H]2C[C@H](Nc3ccc4c(c3)C(=O)N(C3CCC(=O)NC3=O)C4=O)C2)cc1` (stereo partly shown) [Example 170, 5-(((1r,3r)-3-(4-(2-(4-((4-(2H-1,2,3-triazol-2-yl)pyrimidin-2-yl)oxy)phenyl)propan-2-yl)phenoxy)cyclobutyl)amino)-2-(2,6-dioxopiperidin-3-yl)isoindol-1,3-dione], in assay [1], the DC50 is less than 10 nM. In the assay on 22RV1 cells (setting [2]), the IC50 stood at 9 nM.
The matching figures for `CC(C)(c1ccc(Oc2cnc(-n3nccn3)cn2)cc1)c1ccc(O[C@H]2C[C@H](Nc3ccc4c(c3)C(=O)N(C3CCC(=O)NC3=O)C4=O)C2)cc1` (stereo partly shown) [Example 583]: 11 to 100 nM and 10 nM.
`CC(C)(c1ccc(Oc2nccc(N3CC4(COC4)C3)n2)cc1)c1ccc(O[C@H]2C[C@@H](Nc3ccc4c(c3)C(=O)N(C3CCC(=O)NC3=O)C4=O)C2)cc1` (stereo partly shown) [Example 155] gave a DC50 in assay [1] of less than 10 nM. Besides, in the assay on 22RV1 cells (setting [2]), the IC50 was 39 nM.
Turning to `Cc1nc(-c2cnc(Oc3ccc(C4(c5ccc(O[C@H]6C[C@H](Nc7ccc8c(c7)C(=O)N(C7CCC(=O)NC7=O)C8=O)C6)cc5)CCCC4)cc3)cn2)no1` (stereo partly shown) [Example 601], in assay [1], the DC50 is less than 10 nM. In addition, in the assay on 22RV1 cells (setting [2]), the IC50 came to 11 nM.
Compound `CC(C)(c1ccc(OCCCNc2ccc3c(c2)C(=O)N(C2CCC(=O)NC2=O)C3=O)cc1)c1ccc(OCc2nc(C(=O)N3CCOCC3)no2)cc1` (stereo not shown) [Example 142, 2-(2,6-dioxopiperidin-3-yl)-5-((3-(4-(2-(4-((3-(morpholine-4-carbonyl)-1,2,4-oxadiazol-5-yl)methoxy)phenyl)propan-2-yl)phenoxy)propyl)amino)isoindolin-1,3-dione] gave a DC50 in assay [1] of 11 to 100 nM. Moreover, the IC50 in the assay on 22RV1 cells (setting [2]) came to 61 nM.
`CC(C)C(O)c1ncc(Oc2ccc(C(C)(C)c3ccc(O[C@H]4C[C@H](Nc5ccc6c(c5)C(=O)N(C5CCC(=O)NC5=O)C6=O)C4)cc3)cc2)cn1` (stereo partly shown) [Example 290]: in assay [1], the DC50 was less than 10 nM. Also, the IC50 with 22RV1 cells (setting [2]) amounted to 7 nM.
In assay [1], `CC(C)(c1ccc(OCc2ccnc(N3CC[C@H](O)C3)n2)cc1)c1ccc(O[C@H]2C[C@@H](Nc3ccc4c(c3)C(=O)N(C3CCC(=O)NC3=O)C4=O)C2)cc1` (stereo partly shown) [Example 233] had a DC50 of less than 10 nM. In addition, the IC50 in the assay with 22RV1 cells (setting [2]) stood at 16 nM.
The compound `CC(=O)c1nccc(COc2ccc(C(C)(C)c3ccc(O[C@H]4C[C@@H](Nc5ccc6c(c5)C(=O)N(C5CCC(=O)NC5=O)C6=O)C4)cc3)cc2)n1` (stereo partly shown) [Example 491] showed a DC50 in assay [1] of less than 10 nM. Besides, in the assay on 22RV1 cells (read-out: 22RV1 IC50 (nM)), the IC50 came to 4 nM.
Compound `CC1CN(c2nccc(COc3ccc(C(C)(C)c4ccc(O[C@H]5C[C@H](Nc6ccc7c(c6)C(=O)N(C6CCC(=O)NC6=O)C7=O)C5)cc4)cc3)n2)CCN1C` (stereo partly shown) [Example 450, 5-(((1r,3r)-3-(4-(2-(4-((2-(3,4-dimethylpiperazin-1-yl)pyrimidin-4-yl)methoxy)phenyl)propan-2-yl)phenoxy)cyclobutyl)amino)-2-(2,6-dioxopiperidin-3-yl)isoindolin-1,3-dione] gave a DC50 in assay [1] of 11 to 100 nM. The IC50 in the assay on 22RV1 cells (setting [2]) amounted to 8 nM.
On to `CC(C)(c1ccc(OCCCNc2ccc3c(c2)C(=O)N(C2CCC(=O)NC2=O)C3=O)cc1)c1ccc(OCc2ccnc(NC3CC3)n2)cc1` (stereo not shown) [Example 444, 5-((3-(4-(2-(4-((2-(cyclopropylamino)pyrimidin-4-yl)methoxy)phenyl)propan-2-yl)phenoxy)propyl)amino)-2-(2,6-dioxopiperidin-3-yl)isoindolin-1,3-dione], for which the DC50 in assay [1] was 11 to 100 nM. Further, in the assay on 22RV1 cells (setting [2]), the IC50 is 62 nM.

(Values after US20250051347A1, “BIFUNCTIONAL CHIMERIC HETEROCYCLIC COMPOUND AND USE THEREOF AS ANDROGEN RECEPTOR DEGRADER” (Hinova Pharmaceuticals, Inc., priority 2021, published 2025).)
